What was measured:
BRD4 BD1 = molecular target: T1, BRD4 BD1 (Homo sapiens, UniProt O60885); experiment: AlphaScreen binding assay, BRD4 Bromodomain 1
T1 construct: made in house
How it was run: (§1)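 Compound dilution series were mixed with His-tagged BRD4 bromodomain and biotinylated tetra-acetylated H4 (1-21) peptide at pH 7.3 (BD1 and peptide at 50 nM, BD2 and peptide at 100 nM). Donor and acceptor beads were then added, and plates were equilibrated at least 1 h before reading. IC50 values were fitted with a four-parameter logistic model.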

BRD4 BD2 = molecular target: T2, BRD4 BD2 (Homo sapiens, UniProt O60885); experiment: AlphaScreen binding assay, BRD4 Bromodomain 2
T2 construct: made in house
How it was run: as §1

MV4-11 cells = experiment: Oncology cell growth assay (3-day proliferation, CellTiter-Glo); format: cell-based; conditions: Homo sapiens, MV4-11, 72 h, AML cell line MV4-11, 72 hours, compounds grouped by IC50 range, read-out: MV4-11 IC50 (inhibition of proliferation, gIC50)
How it was run: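 72 h, 37° C, 5% CO2; MV4-11, 3000 cells/well, RPMI 1640 + 10% FBS. Compound final 10, 3.3, 1.1, 0.37, 0.12, 0.041, 0.013, 0.0045 μM. Readout CellTiter-Glo luminescence; gIC50 by 4-parameter logistic fit, normalised to DMSO and no-cell background.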

| IC50 (BRD4 BD1) [nM] | IC50 (BRD4 BD2) [nM] | IC50 (MV4-11 cells) [nM] | Compound |
| --- | --- | --- | --- |
| 100 to 1000 | 50 to 500 | 100 to 500 | CC(=O)N1c2ccc(-c3ccc(S(=O)(=O)CCO)cc3)cc2N(C(=O)OC(C)C)C[C@@H]1C [Example I-478] |
| 100 to 1000 | > 500 | > 500 | CC(C)OC(=O)N1C[C@H](C)N(C(=O)C2CC2)c2ccc(-c3ccc(S(=O)(=O)CCO)cc3)cc21 [Example I-479] |
| 100 to 1000 | > 500 | > 500 | CC(C)OC(=O)N1C[C@H](C)N(C(=O)C2CC2)c2ccc(-c3cn(C)nn3)cc21 [Example I-482] |
| 100 to 1000 | 50 to 500 | > 500 | COC(=O)N1c2ccc(-c3ccc(N4CCS(=O)(=O)CC4)cc3)cc2N(C(=O)OC(C)C)C[C@@H]1C [Example I-483] |
| 100 to 1000 | 50 to 500 | > 500 | COC(=O)N1c2ccc(-c3cnc(N)cn3)cc2N(C(=O)OC(C)C)C[C@@H]1C [Example I-485] |
| 100 to 1000 | 50 to 500 | > 500 | COC(=O)N1c2ccc(-c3cn(C)nn3)cc2N(C(=O)OC(C)C)C[C@@H]1C [Example I-490] |
| 100 to 1000 | 50 to 500 | 100 to 500 | CC(=O)N1c2ccc(-c3ccc(S(C)(=O)=O)cc3)cc2N(C(=O)OC2CCC2)C[C@@H]1C [Example I-493] |
| 100 to 1000 | 50 to 500 | 100 to 500 | CCC(C)OC(=O)N1C[C@H](C)N(C(C)=O)c2ccc(-c3ccc(S(C)(=O)=O)cc3)cc21 (stereo partly drawn) [Example I-494] |
| 100 to 1000 | > 500 | 100 to 500 | CC(=O)N1c2ccc(-c3ccc(S(C)(=O)=O)cc3)cc2N(C(=O)OCC2CC2)C[C@@H]1C [Example I-495] |
| 100 to 1000 | 50 to 500 | 100 to 500 | CC(=O)N1c2ccc(-c3ccc(S(C)(=O)=O)cc3)cc2N(C(=O)OC2CCOCC2)C[C@@H]1C [Example I-496] |
| 100 to 1000 | 50 to 500 | 100 to 500 | CC(=O)N1c2ccc(-c3ccc(C(=O)N4CCNCC4)cc3)cc2N(C(=O)OC2CCOCC2)C[C@@H]1C [Example I-498] |
| 100 to 1000 | 50 to 500 | 100 to 500 | CC(=O)N1c2ccc(-c3cnn(C4CC4)c3)cc2N(C(=O)Oc2ccc(F)cc2F)C[C@@H]1C [Example I-499] |
| 100 to 1000 | 50 to 500 | 100 to 500 | COc1cccc(OC(=O)N2C[C@H](C)N(C(C)=O)c3ccc(-c4cnn(C5CC5)c4)cc32)c1 [Example I-500] |
| 100 to 1000 | 50 to 500 | 100 to 500 | CC(=O)N1c2ccc(-c3cnn(C4CC4)c3)cc2N(C(=O)Oc2cccc(C#N)c2)C[C@@H]1C [Example I-501] |
| 100 to 1000 | 50 to 500 | 100 to 500 | CC(=O)N1c2ccc(-c3cnn(C4CC4)c3)cc2N(C(=O)Oc2cccc(F)c2)C[C@@H]1C [Example I-502] |
| 100 to 1000 | 50 to 500 | 100 to 500 | CC(=O)N1c2ccc(-c3cnn(C4CC4)c3)cc2N(C(=O)Oc2cc(F)ccc2F)C[C@@H]1C [Example I-503] |
| 100 to 1000 | 50 to 500 | 100 to 500 | CC(=O)N1c2ccc(-c3cnn(C4CC4)c3)cc2N(C(=O)Oc2ccc(C)cc2Cl)C[C@@H]1C [Example I-504] |
| 100 to 1000 | 50 to 500 | < 100 | COc1cc(C)ccc1OC(=O)N1C[C@H](C)N(C(C)=O)c2ccc(-c3cnn(C4CC4)c3)cc21 [Example I-506] |
| 100 to 1000 | 50 to 500 | 100 to 500 | COc1ccc(C)cc1OC(=O)N1C[C@H](C)N(C(C)=O)c2ccc(-c3cnn(C4CC4)c3)cc21 [Example I-508] |
| 100 to 1000 | 50 to 500 | 100 to 500 | CC(=O)N1c2ccc(-c3cnn(C4CC4)c3)cc2N(C(=O)Oc2ccccc2C)C[C@@H]1C [Example I-509] |
| < 100 | < 50 | 100 to 500 | CC(=O)N1c2ccc(-c3cnn(C4CC4)c3)cc2N(C(=O)Oc2cccnc2)C[C@@H]1C [Example I-510] |
| < 100 | < 50 | 100 to 500 | CC(=O)N1c2ccc(-c3cnn(C4CC4)c3)cc2N(C(=O)Oc2ccc(C)nc2)C[C@@H]1C [Example I-511] |
| < 100 | < 50 | < 100 | CC(=O)N1c2ccc(-c3cnn(C4CC4)c3)cc2N(C(=O)Oc2ccc3ncccc3c2)C[C@@H]1C [Example I-512] |
| 100 to 1000 | 50 to 500 | < 100 | CC(=O)N1c2ccc(-c3cnn(C4CC4)c3)cc2N(C(=O)Oc2ccc3nc(C)ccc3c2)C[C@@H]1C [Example I-513] |

| IC50 (BRD4 BD1) [nM] | IC50 (BRD4 BD2) [nM] | IC50 (MV4-11 cells) [nM] | Compound |
| --- | --- | --- | --- |
| 100 to 1000 | 50 to 500 | < 100 | CC(=O)N1c2ccc(-c3cnn(C4CC4)c3)cc2N(C(=O)Oc2cccc3ccc(C)nc23)C[C@@H]1C [Example I-515] |
| 100 to 1000 | 50 to 500 | < 100 | CC(=O)N1c2ccc(-c3cnn(C4CC4)c3)cc2N(C(=O)Oc2cccc(C)c2)C[C@@H]1C [Example I-517] |
| 100 to 1000 | 50 to 500 | 100 to 500 | CC(=O)N1c2ccc(-c3cnn(C4CC4)c3)cc2N(C(=O)Oc2cccc(Cl)c2)C[C@@H]1C [Example I-518] |
| 100 to 1000 | 50 to 500 | < 100 | CC(=O)N1c2ccc(-c3cnn(C4CC4)c3)cc2N(C(=O)Oc2ccccc2F)C[C@@H]1C [Example I-519] |
| < 100 | < 50 | < 100 | COc1ncccc1OC(=O)N1C[C@H](C)N(C(C)=O)c2ccc(-c3cnn(C4CC4)c3)cc21 [Example I-521] |
| 100 to 1000 | 50 to 500 | < 100 | COc1c(OC(=O)N2C[C@H](C)N(C(C)=O)c3ccc(-c4cnn(C5CC5)c4)cc32)ccnc1C [Example I-522] |
| 100 to 1000 | 50 to 500 | < 100 | COc1ccc(OC(=O)N2C[C@H](C)N(C(C)=O)c3ccc(-c4cnn(C5CC5)c4)cc32)c(F)c1 [Example I-523] |
| 100 to 1000 | 50 to 500 | < 100 | COc1ccc(F)c(OC(=O)N2C[C@H](C)N(C(C)=O)c3ccc(-c4cnn(C5CC5)c4)cc32)c1 [Example I-524] |
| 100 to 1000 | 50 to 500 | 100 to 500 | COc1ccc(C#N)cc1OC(=O)N1C[C@H](C)N(C(C)=O)c2ccc(-c3cnn(C4CC4)c3)cc21 [Example I-526] |
| 100 to 1000 | 50 to 500 | < 100 | CC(=O)N1c2ccc(-c3cnn(C4CC4)c3)cc2N(C(=O)Oc2ccc3ncsc3c2)C[C@@H]1C [Example I-527] |
| 100 to 1000 | < 50 | < 100 | COc1cc(Cl)ccc1OC(=O)N1C[C@H](C)N(C(C)=O)c2ccc(-c3cnn(C4CC4)c3)cc21 [Example I-529] |
| 100 to 1000 | 50 to 500 | < 100 | COc1ccc(Cl)cc1OC(=O)N1C[C@H](C)N(C(C)=O)c2ccc(-c3cnn(C4CC4)c3)cc21 [Example I-530] |
| 100 to 1000 | 50 to 500 | 100 to 500 | CC(=O)N1c2ccc(-c3ccc(C(=O)N4CC[C@@H](N)C4)cc3)cc2N(C(=O)OC(C)C)C[C@@H]1C [Example I-532] |
| 100 to 1000 | 50 to 500 | < 100 | CC(=O)N1c2ccc(-c3ccc(C(=O)NCCN(C)C)cc3)cc2N(C(=O)OC(C)C)C[C@@H]1C [Example I-533] |
| 100 to 1000 | 50 to 500 | 100 to 500 | CC(=O)N1c2ccc(-c3ccc(C(=O)NCC(N)=O)cc3)cc2N(C(=O)OC(C)C)C[C@@H]1C [Example I-534] |
| 100 to 1000 | < 50 | 100 to 500 | CCN(CC)C(=O)c1ccc(-c2ccc3c(c2)N(C(=O)OC(C)C)C[C@H](C)N3C(C)=O)cc1 [Example I-536] |
| 100 to 1000 | 50 to 500 | 100 to 500 | CC(=O)N1c2ccc(-c3ccc(C(=O)N4CCCCC4)cc3)cc2N(C(=O)OC(C)C)C[C@@H]1C [Example I-537] |
| 100 to 1000 | 50 to 500 | 100 to 500 | CC(=O)N1c2ccc(-c3ccc(C(=O)N4CCSCC4)cc3)cc2N(C(=O)OC(C)C)C[C@@H]1C [Example I-538] |
| 100 to 1000 | 50 to 500 | 100 to 500 | CC(=O)N1c2ccc(-c3ccc(C(=O)N(C)CCN(C)C)cc3)cc2N(C(=O)OC(C)C)C[C@@H]1C [Example I-539] |
| < 100 | < 50 | < 100 | CC(=O)N[C@@H]1CCN(C(=O)c2ccc(-c3ccc4c(c3)N(C(=O)OC(C)C)C[C@H](C)N4C(C)=O)cc2)C1 [Example I-540] |
| 100 to 1000 | 50 to 500 | 100 to 500 | CC(=O)N[C@H]1CCN(C(=O)c2ccc(-c3ccc4c(c3)N(C(=O)OC(C)C)C[C@H](C)N4C(C)=O)cc2)C1 [Example I-541] |
| < 100 | < 50 | < 100 | CC(=O)N1c2ccc(-c3ccc(C(=O)N4CC[C@@H](N(C)C)C4)cc3)cc2N(C(=O)OC(C)C)C[C@@H]1C [Example I-542] |
| < 100 | < 50 | < 100 | CC(=O)N1c2ccc(-c3ccc(C(=O)N4CC[C@H](N(C)C)C4)cc3)cc2N(C(=O)OC(C)C)C[C@@H]1C [Example I-543] |
| 100 to 1000 | 50 to 500 | 100 to 500 | CC(=O)N1c2ccc(-c3ccc(C(=O)N4CCN(C)CC4)cc3)cc2N(C(=O)OC(C)C)C[C@@H]1C [Example I-544] |

— patent US10703764B2, “Benzopiperazine compositions as BET bromodomain inhibitors” (FORMA Therapeutics, Inc., priority 2013, dated 2020)
